Experimental findings from patent US20180250308A1, “NR2B SELECTIVE NMDA-RECEPTOR ANTAGONISTS FOR TREATMENT OF IMMUNE-MEDIATED INFLAMMATORY DISEASES” (WESTFALISCHE WILHELMS-UNIVERSITAT MUNSTER, priority 2015, published 2018) are described below.

The target in test [1] is T1, σ1 receptor (Cavia porcellus, UniProt Q60492).
T1 construct: Five guinea pig brains (Harlan Winkelmann, Borchen, Germany) were homogenized; tissue Harlan Winkelmann, Borchen, Germany; host or cells: guinea pig brain membrane preparation
T1 sequence (Q60492 whole entry): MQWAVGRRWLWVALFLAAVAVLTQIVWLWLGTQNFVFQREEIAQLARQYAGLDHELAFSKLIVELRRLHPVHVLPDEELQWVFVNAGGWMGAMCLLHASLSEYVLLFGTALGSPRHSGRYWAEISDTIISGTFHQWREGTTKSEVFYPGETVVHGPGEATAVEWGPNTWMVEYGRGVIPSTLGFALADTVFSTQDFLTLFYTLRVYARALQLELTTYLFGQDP
As to the kind of experiment: Binding assay with [3H]-(+)-pentazocine, σ1 receptor. Particulars: guinea pig brain membranes, read-out: affinity to the σ1 receptor. Here is the method: Five guinea pig brains (Harlan Winkelmann, Borchen, Germany) were homogenized with the potter (500-800 rpm, 10 up-and-down strokes) in 6 volumes of cold 0.32 M sucrose. […] This procedure was repeated twice.
The incubation was terminated by rapid filtration through the presoaked filtermats using a cell harvester.

Test [2] deals with T2, polyamine binding site of the NR2B subunit of the NMDA receptor (Homo sapiens, UniProt Q05586+Q13224).
T2 construct: host or cells: mouse L(tk-) cells; expression induced with dexamethasone, then membrane homogenate prepared
T2 sequence (Q13224 27-1484, other chains not shown): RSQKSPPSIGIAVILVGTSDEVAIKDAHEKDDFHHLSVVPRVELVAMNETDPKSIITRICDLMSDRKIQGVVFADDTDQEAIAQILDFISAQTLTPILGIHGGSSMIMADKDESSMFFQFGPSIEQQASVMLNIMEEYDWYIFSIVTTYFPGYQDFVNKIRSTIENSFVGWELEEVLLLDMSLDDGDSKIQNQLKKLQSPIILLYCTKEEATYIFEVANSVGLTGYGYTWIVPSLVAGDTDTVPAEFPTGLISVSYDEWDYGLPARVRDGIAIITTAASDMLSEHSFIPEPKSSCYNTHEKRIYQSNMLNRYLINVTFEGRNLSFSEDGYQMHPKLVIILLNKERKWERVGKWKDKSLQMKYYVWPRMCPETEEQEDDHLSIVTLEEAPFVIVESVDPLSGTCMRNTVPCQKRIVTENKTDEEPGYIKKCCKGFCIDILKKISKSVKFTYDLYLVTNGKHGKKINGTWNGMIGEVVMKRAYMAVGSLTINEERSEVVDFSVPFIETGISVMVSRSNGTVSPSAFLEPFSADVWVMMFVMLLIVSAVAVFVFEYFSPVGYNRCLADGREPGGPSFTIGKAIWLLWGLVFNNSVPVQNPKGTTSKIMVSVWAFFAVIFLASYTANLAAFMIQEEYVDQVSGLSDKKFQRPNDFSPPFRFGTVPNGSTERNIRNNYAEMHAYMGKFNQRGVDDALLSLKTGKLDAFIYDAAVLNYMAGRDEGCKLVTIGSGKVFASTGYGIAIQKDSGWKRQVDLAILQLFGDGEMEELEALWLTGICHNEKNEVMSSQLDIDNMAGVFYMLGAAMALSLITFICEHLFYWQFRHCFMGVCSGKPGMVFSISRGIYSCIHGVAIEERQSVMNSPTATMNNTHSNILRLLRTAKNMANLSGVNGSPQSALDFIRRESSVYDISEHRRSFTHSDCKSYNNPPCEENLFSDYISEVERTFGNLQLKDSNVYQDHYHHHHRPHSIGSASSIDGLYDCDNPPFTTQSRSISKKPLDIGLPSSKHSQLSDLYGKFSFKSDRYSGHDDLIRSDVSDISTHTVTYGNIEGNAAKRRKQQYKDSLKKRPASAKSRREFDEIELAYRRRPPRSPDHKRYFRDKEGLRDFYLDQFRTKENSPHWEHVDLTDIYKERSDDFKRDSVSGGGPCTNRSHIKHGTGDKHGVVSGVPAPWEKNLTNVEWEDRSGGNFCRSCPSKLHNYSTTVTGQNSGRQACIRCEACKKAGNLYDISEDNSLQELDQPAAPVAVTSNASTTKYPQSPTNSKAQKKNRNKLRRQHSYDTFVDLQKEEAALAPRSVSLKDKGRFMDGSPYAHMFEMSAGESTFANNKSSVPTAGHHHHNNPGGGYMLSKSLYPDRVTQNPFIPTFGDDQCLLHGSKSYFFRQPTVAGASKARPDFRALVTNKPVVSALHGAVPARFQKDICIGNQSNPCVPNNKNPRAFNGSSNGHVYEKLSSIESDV
As to the kind of experiment: Filtration-based receptor binding assay with [3H]-Ifenprodil, NR2B subunit. The following applies: membranes of L(tk-) cells expressing NR1-1a/NR2B, Ki by Cheng-Prusoff, mean ± SEM, read-out: affinity to the NR2B binding site of the NMDA receptor. Here is the method: The determination was performed using a filtration-based receptor binding assay on 96-well-multiplates for the polyamine binding site of the NR2B subunit of the NMDA receptor using [^3H]-Ifenprodil as radioligand.
Mouse L(tk-) cells stably transfected with the dexamethasone-inducible eukaryotic expression vectors pMSG NR1-1a, pMSG NR2B in a 1:5 ratio were a generous gift from D. […] Steinhilber (Department of Pharmacy, University of Frankfurt, Germany). The transformed L(tk-) cells were grown in Modified Earl's Medium (MEM) containing 10% of standardized FCS (Biochrom AG, Berlin, Germany). The expression of the NMDA receptor at the cell surface was induced after the cell density of the adherent growing cells had reached approximately 90% of confluency. […]
For the binding assay, the cell pellet was resuspended in PBS buffer and the number of cells was determined using an improved Neubauer's counting chamber (VWR, Darmstadt, Germany). […]
The competitive binding assay was performed with the radioligand [^3H]-Ifenprodil (60 Ci/mmol; Perkin Elmer) using standard 96-well-multiplates (Diagonal, Muenster, Germany). […] The bound radioactivity trapped on the filters was counted in the scintillation analyzer (Microbeta Counter, Perkin Elmer). […] The non-specific binding was determined with 10 μM unlabeled Ifenprodil. […]

Consider `COc1ccc2c(c1)CCN(CCCCc1ccccc1)CC2O` (centres unmarked) [formula (4)], for which the results for the Ki in test [1] and in test [2] were 194 nM and 15.3 ± 1.2 nM, respectively.
